Tested on: IL-1β release from THP-1 cells
Experiment: IL-1β Release Assay (Alternate Method), THP-1 cells
Assay type: cell-based, human
Details: Homo sapiens; at 0.3 μM; THP-1 cells; read-out: IL-1β % inhibition
In short: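 IL-1β release, measured by ELISA, follows 45 min BzATP (250 uM final) stimulation of THP-1 cells given 30 min compound pretreatment. Cells were first primed 16 h with LPS and IFN-γ (100 ng/mL each), then 2 h with fresh LPS; inhibition expressed in percent after background correction.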

Question: `O=C(CC12CC3CC(CC(C3)C1)C2)Nc1ncnc2c1CCN(C(=O)c1ccccc1)C2` [Compound 220] was tested. Which inhibition at 0.3 µM did it give?
Answer: > 75%

Same assay, conditions: at 0.3 μM; THP-1 cells

Question: For `Cc1ccc(F)cc1S(=O)(=O)N1CCc2c(ncnc2NC(=O)CC23CC4CC(CC(C4)C2)C3)C1` [Compound 212], which IL-1β % inhibition is on record?
Answer: +++ (compound exhibited 50-75% inhibition at 0.3 μM)

Question: With `COc1ccc(C)cc1S(=O)(=O)N1CCc2c(ncnc2NC(=O)CC23CC4CC(CC(C4)C2)C3)C1` [Compound 214] as the molecule, how does the IL-1β % inhibition read?
Answer: + (compound exhibited 0-25% inhibition at 0.3 μM)

Question: For `O=C(CC12CC3CC(CC(C3)C1)C2)Nc1ncnc2c1CCN(S(=O)(=O)c1cccc(F)c1)C2` [Compound 215], which IL-1β % inhibition is on record?
Answer: +++ (compound exhibited 50-75% inhibition at 0.3 μM)

Question: How did the IL-1β % inhibition turn out when `COc1ccc(OC)c(S(=O)(=O)N2CCc3c(ncnc3NC(=O)CC34CC5CC(CC(C5)C3)C4)C2)c1` [Compound 216] was run?
Answer: +++ (compound exhibited 50-75% inhibition at 0.3 μM)

Question: `Cc1cc(C)cc(S(=O)(=O)N2CCc3c(ncnc3NC(=O)CC34CC5CC(CC(C5)C3)C4)C2)c1` [Compound 217] was tested. Which IL-1β % inhibition did it give?
Answer: + (compound exhibited 0-25% inhibition at 0.3 μM)

Question: With `O=C(CC12CC3CC(CC(C3)C1)C2)Nc1ncnc2c1CCN(C(=O)c1c(Cl)cccc1Cl)C2` [Compound 218] as the molecule, how does the IL-1β % inhibition read?
Answer: ++++ (compound exhibited 75% or greater inhibition at 0.3 μM)

Question: How did the IL-1β % inhibition turn out when `CC(=O)N1CCc2c(ncnc2NC(=O)CC23CC4CC(CC(C4)C2)C3)C1` [Compound 219] was run?
Answer: + (compound exhibited 0-25% inhibition at 0.3 μM)

Question: How did the IL-1β % inhibition turn out when `O=C(CC12CC3CC(CC(C3)C1)C2)Nc1ncnc2c1CCN(C(=O)c1cccnc1Cl)C2` [Compound 222] was run?
Answer: +++ (compound exhibited 50-75% inhibition at 0.3 μM)

Question: For `CCC(=O)N1CCc2c(ncnc2NC(=O)CC23CC4CC(CC(C4)C2)C3)C1` [Compound 223], which IL-1β % inhibition is on record?
Answer: + (compound exhibited 0-25% inhibition at 0.3 μM)

Question: How did the IL-1β % inhibition turn out when `COc1ccc(CC(=O)N2CCc3c(ncnc3NC(=O)CC34CC5CC(CC(C5)C3)C4)C2)cc1` [Compound 224] was run?
Answer: + (compound exhibited 0-25% inhibition at 0.3 μM)

Question: With `O=C(CC12CC3CC(CC(C3)C1)C2)Nc1ncnc2c1CCN(C(=O)Cc1ccccc1)C2` [Compound 225] as the molecule, how does the IL-1β % inhibition read?
Answer: ++ (compound exhibited 25-50% inhibition at 0.3 μM)

Question: `O=C(CC12CC3CC(CC(C3)C1)C2)Nc1ncnc2c1CCN(C(=O)c1cccc(F)c1)C2` [Compound 227] was tested. Which IL-1β % inhibition did it give?
Answer: + (compound exhibited 0-25% inhibition at 0.3 μM)

Question: For `O=C(CC12CC3CC(CC(C3)C1)C2)Nc1ncnc2c1CCN(C(=O)c1ccc(OC(F)(F)F)cc1)C2` [Compound 228], which IL-1β % inhibition is on record?
Answer: + (compound exhibited 0-25% inhibition at 0.3 μM)

Question: Which IL-1β % inhibition does the source give for `CCc1ccc(C(=O)N2CCc3c(ncnc3NC(=O)CC34CC5CC(CC(C5)C3)C4)C2)cc1` [Compound 229] here?
Answer: +++ (compound exhibited 50-75% inhibition at 0.3 μM)

Question: `Cc1cccc(C(=O)N2CCc3c(ncnc3NC(=O)CC34CC5CC(CC(C5)C3)C4)C2)c1` [Compound 230] was tested. Which IL-1β % inhibition did it give?
Answer: ++++ (compound exhibited 75% or greater inhibition at 0.3 μM)

Question: How did the IL-1β % inhibition turn out when `O=C(CC12CC3CC(CC(C3)C1)C2)Nc1ncnc2c1CCN(C(=O)CCC1CCCC1)C2` [Compound 231] was run?
Answer: ++ (compound exhibited 25-50% inhibition at 0.3 μM)

Question: Which IL-1β % inhibition does the source give for `O=C(CC12CC3CC(CC(C3)C1)C2)Nc1ncnc2c1CCN(C(=O)c1ccc(F)c(F)c1)C2` [Compound 232] here?
Answer: +++ (compound exhibited 50-75% inhibition at 0.3 μM)

Question: With `O=C(CC12CC3CC(CC(C3)C1)C2)Nc1ncnc2c1CCN(C(=O)c1cccc(C(F)(F)F)c1)C2` [Compound 233] as the molecule, how does the IL-1β % inhibition read?
Answer: ++++ (compound exhibited 75% or greater inhibition at 0.3 μM)

Question: How did the IL-1β % inhibition turn out when `COc1ccc(C(=O)N2CCc3c(ncnc3NC(=O)CC34CC5CC(CC(C5)C3)C4)C2)cc1` [Compound 234] was run?
Answer: ++ (compound exhibited 25-50% inhibition at 0.3 μM)

Question: `CC(CC(=O)N1CCc2c(ncnc2NC(=O)CC23CC4CC(CC(C4)C2)C3)C1)CC(C)(C)C` (centres unmarked) [Compound 235] was tested. Which IL-1β % inhibition did it give?
Answer: ++++ (compound exhibited 75% or greater inhibition at 0.3 μM)

Question: `O=C(CC12CC3CC(CC(C3)C1)C2)Nc1ncnc2c1CCN(C(=O)C(c1ccccc1)c1ccccc1)C2` [Compound 236] was tested. Which IL-1β % inhibition did it give?
Answer: +++ (compound exhibited 50-75% inhibition at 0.3 μM)

Question: For `O=C(CC12CC3CC(CC(C3)C1)C2)Nc1ncnc2c1CCN(C(=O)c1cccnc1)C2` [Compound 237], which IL-1β % inhibition is on record?
Answer: + (compound exhibited 0-25% inhibition at 0.3 μM)

Question: For `O=C(CC12CC3CC(CC(C3)C1)C2)Nc1ncnc2c1CCN(C(=O)C1CCCC1)C2` [Compound 238], which IL-1β % inhibition is on record?
Answer: ++++ (compound exhibited 75% or greater inhibition at 0.3 μM)

Question: How did the IL-1β % inhibition turn out when `COc1ccc(OC)c(CC(=O)N2CCc3c(ncnc3NC(=O)CC34CC5CC(CC(C5)C3)C4)C2)c1` [Compound 239] was run?
Answer: ++ (compound exhibited 25-50% inhibition at 0.3 μM)

Question: How did the IL-1β % inhibition turn out when `COCC(=O)N1CCc2c(ncnc2NC(=O)CC23CC4CC(CC(C4)C2)C3)C1` [Compound 240] was run?
Answer: + (compound exhibited 0-25% inhibition at 0.3 μM)

Question: How did the IL-1β % inhibition turn out when `O=C(CC12CC3CC(CC(C3)C1)C2)Nc1ncnc2c1CCN(C(=O)Cc1ccc(F)cc1)C2` [Compound 241] was run?
Answer: +++ (compound exhibited 50-75% inhibition at 0.3 μM)

Question: Which IL-1β % inhibition does the source give for `N#Cc1cccc(C(=O)N2CCc3c(ncnc3NC(=O)CC34CC5CC(CC(C5)C3)C4)C2)c1` [Compound 242] here?
Answer: +++ (compound exhibited 50-75% inhibition at 0.3 μM)

Question: For `O=C(CC12CC3CC(CC(C3)C1)C2)Nc1ncnc2c1CCN(C(=O)c1ccc(C(F)(F)F)cc1)C2` [Compound 243], which IL-1β % inhibition is on record?
Answer: +++ (compound exhibited 50-75% inhibition at 0.3 μM)

Question: Which IL-1β % inhibition does the source give for `O=C(CC12CC3CC(CC(C3)C1)C2)Nc1ncnc2c1CCN(C(=O)C1CCCCC1)C2` [Compound 244] here?
Answer: ++ (compound exhibited 25-50% inhibition at 0.3 μM)

Question: How did the IL-1β % inhibition turn out when `O=C(CC12CC3CC(CC(C3)C1)C2)Nc1ncnc2c1CCN(C(=O)c1ccc(Cl)c(Cl)c1)C2` [Compound 245] was run?
Answer: +++ (compound exhibited 50-75% inhibition at 0.3 μM)

Question: `COc1cc(OC)cc(C(=O)N2CCc3c(ncnc3NC(=O)CC34CC5CC(CC(C5)C3)C4)C2)c1` [Compound 246] was tested. Which IL-1β % inhibition did it give?
Answer: ++ (compound exhibited 25-50% inhibition at 0.3 μM)

Question: How did the IL-1β % inhibition turn out when `O=C(CC12CC3CC(CC(C3)C1)C2)Nc1ncnc2c1CCN(C(=O)c1c(F)cccc1F)C2` [Compound 247] was run?
Answer: ++++ (compound exhibited 75% or greater inhibition at 0.3 μM)

Question: Which IL-1β % inhibition does the source give for `O=C(CC12CC3CC(CC(C3)C1)C2)Nc1ncnc2c1CCN(C(=O)CCc1ccccc1)C2` [Compound 248] here?
Answer: + (compound exhibited 0-25% inhibition at 0.3 μM)

Question: Which IL-1β % inhibition does the source give for `O=C(CC12CC3CC(CC(C3)C1)C2)Nc1ncnc2c1CCN(C(=O)COc1ccccc1)C2` [Compound 249] here?
Answer: + (compound exhibited 0-25% inhibition at 0.3 μM)

Question: Which IL-1β % inhibition does the source give for `COc1cccc(C(=O)N2CCc3c(ncnc3NC(=O)CC34CC5CC(CC(C5)C3)C4)C2)c1` [Compound 250] here?
Answer: +++ (compound exhibited 50-75% inhibition at 0.3 μM)

Question: How did the IL-1β % inhibition turn out when `O=C(CC12CC3CC(CC(C3)C1)C2)Nc1ncnc2c1CCN(C(=O)c1ccc(F)cc1)C2` [Compound 251] was run?
Answer: + (compound exhibited 0-25% inhibition at 0.3 μM)

Question: Which IL-1β % inhibition does the source give for `CC(C)(C)C(=O)N1CCc2c(ncnc2NC(=O)CC23CC4CC(CC(C4)C2)C3)C1` [Compound 252] here?
Answer: ++ (compound exhibited 25-50% inhibition at 0.3 μM)

Question: `O=C(CC12CC3CC(CC(C3)C1)C2)Nc1ncnc2c1CCN(C(=O)c1cccc(Cl)c1)C2` [Compound 253] was tested. Which IL-1β % inhibition did it give?
Answer: +++ (compound exhibited 50-75% inhibition at 0.3 μM)

Question: How did the IL-1β % inhibition turn out when `COc1ccc(CC(=O)N2CCc3c(ncnc3NC(=O)CC34CC5CC(CC(C5)C3)C4)C2)cc1OC` [Compound 254] was run?
Answer: + (compound exhibited 0-25% inhibition at 0.3 μM)

Question: Which IL-1β % inhibition does the source give for `CC(C)CC(=O)N1CCc2c(ncnc2NC(=O)CC23CC4CC(CC(C4)C2)C3)C1` [Compound 255] here?
Answer: ++ (compound exhibited 25-50% inhibition at 0.3 μM)

Question: For `O=C(CC12CC3CC(CC(C3)C1)C2)Nc1ncnc2c1CCN(C(=O)COCc1ccccc1)C2` [Compound 256], which IL-1β % inhibition is on record?
Answer: +++ (compound exhibited 50-75% inhibition at 0.3 μM)

Question: `N#Cc1ccc(C(=O)N2CCc3c(ncnc3NC(=O)CC34CC5CC(CC(C5)C3)C4)C2)cc1` [Compound 257] was tested. Which IL-1β % inhibition did it give?
Answer: + (compound exhibited 0-25% inhibition at 0.3 μM)

Question: `O=C(CC12CC3CC(CC(C3)C1)C2)Nc1ncnc2c1CCN(C(=O)c1ccc(Cl)cc1Cl)C2` [Compound 258] was tested. Which IL-1β % inhibition did it give?
Answer: ++++ (compound exhibited 75% or greater inhibition at 0.3 μM)

Question: Which IL-1β % inhibition does the source give for `O=C(CC12CC3CC(CC(C3)C1)C2)Nc1ncnc2c1CCN(C(=O)C1CC1)C2` [Compound 260] here?
Answer: +++ (compound exhibited 50-75% inhibition at 0.3 μM)

Question: With `COc1cccc(CC(=O)N2CCc3c(ncnc3NC(=O)CC34CC5CC(CC(C5)C3)C4)C2)c1` [Compound 261] as the molecule, how does the IL-1β % inhibition read?
Answer: + (compound exhibited 0-25% inhibition at 0.3 μM)

Question: For `CC(C)(C)CC(=O)N1CCc2c(ncnc2NC(=O)CC23CC4CC(CC(C4)C2)C3)C1` [Compound 262], which IL-1β % inhibition is on record?
Answer: + (compound exhibited 0-25% inhibition at 0.3 μM)

Question: With `O=C(CC12CC3CC(CC(C3)C1)C2)Nc1ncnc2c1CCN(C(=O)CC1CCCC1)C2` [Compound 263] as the molecule, how does the IL-1β % inhibition read?
Answer: ++++ (compound exhibited 75% or greater inhibition at 0.3 μM)

Question: For `O=C(CC12CC3CC(CC(C3)C1)C2)Nc1ncnc2c1CCN(C(=O)COc1ccc(Cl)cc1)C2` [Compound 264], which IL-1β % inhibition is on record?
Answer: +++ (compound exhibited 50-75% inhibition at 0.3 μM)

Question: Which IL-1β % inhibition does the source give for `O=C(CC12CC3CC(CC(C3)C1)C2)Nc1ncnc2c1CCN(C(=O)Cc1ccc(Cl)cc1)C2` [Compound 265] here?
Answer: ++ (compound exhibited 25-50% inhibition at 0.3 μM)

Question: `O=C(CC12CC3CC(CC(C3)C1)C2)Nc1ncnc2c1CCN(C(=O)c1ccc(C(F)(F)F)cc1F)C2` [Compound 266] was tested. Which IL-1β % inhibition did it give?
Answer: + (compound exhibited 0-25% inhibition at 0.3 μM)

Question: `O=C(CC12CC3CC(CC(C3)C1)C2)Nc1ncnc2c1CCN(C(=O)c1cc(F)cc(C(F)(F)F)c1)C2` [Compound 267] was tested. Which IL-1β % inhibition did it give?
Answer: ++ (compound exhibited 25-50% inhibition at 0.3 μM)

Question: `O=C(CC12CC3CC(CC(C3)C1)C2)Nc1ncnc2c1CCN(C(=O)c1cccc(OC(F)(F)F)c1)C2` [Compound 269] was tested. Which IL-1β % inhibition did it give?
Answer: ++ (compound exhibited 25-50% inhibition at 0.3 μM)

Source: US7297700B2, “Bicycloheteroaryl compounds as P2X7 modulators and uses thereof” (Renovis, Inc., priority 2005, dated 2007)
